From patent publication US8546421B1, “Oncogenic-RAS-signal dependent lethal compounds” (The Trustees of Columbia University in the City of New York, priority 2007, dated 2013)
Converted amounts (≈) assume the structure as drawn.

Assays:
[1] = test system: HOP-92; assay: NCI60 anti-cancer screening
[2] = test system: MCF-7; assay: NCI60 anti-cancer screening
[3] = test system: OVCAR-8; assay: NCI60 anti-cancer screening
[4] = test system: OVCAR-3; assay: cells; details: Homo sapiens
[5] = test system: BT-549; assay: NCI60 anti-cancer screening
[6] = test system: SF-268; assay: NCI60 anti-cancer screening
[7] = test system: UACC-257; assay: NCI60 anti-cancer screening
[8] = test system: SK-MEL-2; assay: NCI60 anti-cancer screening
[9] = test system: COLO 205; assay: NCI60 anti-cancer screening
[10] = test system: HCT-116; assay: NCI60 anti-cancer screening
[11] = test system: K-562; assay: NCI60 anti-cancer screening; details: Homo sapiens
[12] = test system: MALME-3M; assay: NCI60 anti-cancer screening
[13] = test system: SF-539; assay: NCI60 anti-cancer screening
[14] = test system: HT29; assay: NCI60 anti-cancer screening
[15] = test system: CCRF-CEM; assay: NCI60 anti-cancer screening
[16] = test system: HL-60(TB); details: Leukemia
[17] = test system: RXF393; assay: NCI60 anti-cancer screening
[18] = test system: SK-MEL-5; assay: NCI60 anti-cancer screening
[19] = test system: UACC-62; assay: NCI60 anti-cancer screening
[20] = test system: MDA-MB-231/ATCC; assay: NCI60 anti-cancer screening
[21] = test system: BJ-TERT/LT/ST/RAS^V12 cells; assay: Alamar blue growth inhibition in dilution series; assay type: cell-based, human; details: Homo sapiens, alamar blue
[22] = test system: Calu-1; assay: Alamar Blue assay, additional cell lines; assay type: cell-based, human; details: Calu-1, Non-small cell lung carcinoma, Alamar Blue
Description: (§1) The results of this additional testing are summarized in Tables 7-10 (no additional cell lines were identified as sensitive for Compound 3). […] The tumor type, cell line, maximum percentage inhibition, the concentration of compound required to inhibit cell growth by 50%, and RAS mutation (if any) are also summarized.

[23] = test system: PaCa-2; assay: Alamar Blue assay, additional cell lines; assay type: cell-based, human; details: Pancreatic Cancer
Description: as §1

[24] = test system: LOX IMVI; assay: NCI60 anti-cancer screening

In the case of CCc1c(O)c2c(c(O)c1O[C@H]1O[C@@H](COC(C)=O)[C@H](OC(C)=O)[C@@H](CC(C)=O)[C@@H]1OC(C)=O)C(=O)C(O[C@@H]1O[C@H](COC(C)=O)[C@@H](OC(C)=O)[C@H](OC(C)=O)[C@H]1OC(C)=O)=C(O[C@@H]1O[C@H](COC(C)=O)[C@@H](OC(C)=O)[C@H](OC(C)=O)[C@H]1OC(C)=O)C2=O [Compound 6], the “GI 100%” value ([1]; HOP-92, Non-small cell lung carcinoma) is reported as 4.31 µM, the GI50 ([1]; Homo sapiens, HOP-92) is reported as 1.48 µM and the CC50 ([1]; Homo sapiens, HOP-92, read-out: LC 50%) is reported as > 10 µM. The GI50 ([2]; Homo sapiens, MCF7) was 1.55 µM, the CC50 ([2]; Homo sapiens, MCF7, read-out: LC 50%) was 9.18 µM and the “GI 100%” value ([2]; MCF-7, Breast Cancer) was 3.78 µM. The GI50 ([3]; Homo sapiens, OVCAR-8) was 4.22 µM, the CC50 ([3]; Homo sapiens, OVCAR-8, read-out: LC 50%) was > 10 µM and the “GI 100%” value ([3]; OVCAR-8, Ovarian Cancer) was >10 µM. The GI50 ([4]; OVCAR-3) was 3.52 µM, the CC50 ([4]; OVCAR-3, read-out: LC 50%) was > 10 µM and the “GI 100%” value ([5]; BT-549, Breast Cancer) was 3.27 µM. The GI50 ([5]; Homo sapiens, BT-549) was 1.49 µM, the CC50 ([5]; Homo sapiens, BT-549, read-out: LC 50%) was 7.21 µM and the GI50 ([6]; Homo sapiens, SF-268) was 2.46 µM. The CC50 ([6]; Homo sapiens, SF-268, read-out: LC 50%) was > 10 µM, the “GI 100%” value ([6]; SF-268, CNS Cancer) was 7.71 µM and the GI50 ([7]; Homo sapiens, UACC-257) was 2.78 µM. For the same molecule, the CC50 ([7]; Homo sapiens, UACC-257, read-out: LC 50%) was > 10 µM, the “GI 100%” value ([7]; UACC-257, Melanoma) was >10 µM and the GI50 ([8]; Homo sapiens, SK-MEL-2) was 2.32 µM. For the same molecule, the CC50 ([8]; Homo sapiens, SK-MEL-2, read-out: LC 50%) was > 10 µM, the “GI 100%” value ([8]; SK-MEL-2, Melanoma) was 6.87 µM and the “GI 100%” value ([9]; COLO 205, Colon Cancer) was 1.26 µM. The GI50 ([9]; Homo sapiens, COLO 205) was 0.232 µM, the CC50 ([9]; Homo sapiens, COLO 205, read-out: LC 50%) was 4.78 µM and the “GI 100%” value ([10]; HCT-116, Colon Cancer) was 1.32 µM. For the same molecule, the GI50 ([10]; Homo sapiens, HCT-116) was 0.376 µM, the CC50 ([10]; Homo sapiens, HCT-116, read-out: LC 50%) was 3.64 µM and the GI50 ([11]; K562) was 0.238 µM. The CC50 ([11]; K562, read-out: LC 50%) was > 10 µM, the GI50 ([12]; Homo sapiens, Malme-3M) was 0.261 µM and the CC50 ([12]; Homo sapiens, Malme-3M, read-out: LC 50%) was 2.8 µM. The “GI 100%” value ([12]; MALME-3M, Melanoma) was 0.723 µM, the GI50 ([13]; Homo sapiens, SF-539) was 2.32 µM and the CC50 ([13]; Homo sapiens, SF-539, read-out: LC 50%) was 9.59 µM. The “GI 100%” value ([13]; SF-539, CNS Cancer) was 4.71 µM, the “GI 100%” value ([14]; HT29, Colon Cancer) was >10 µM and the GI50 ([14]; Homo sapiens, HT-29) was 3.32 µM. The CC50 ([14]; Homo sapiens, HT-29, read-out: LC 50%) was > 10 µM, the GI50 ([15]; Homo sapiens) was 0.115 µM and the “GI 100%” value ([15]; Leukemia) was 0.422 µM. For the same molecule, the “GI 100%” value [16] was 2.38 µM, the GI50 ([17]; Homo sapiens, RXF 393) was 0.652 µM and the CC50 ([17]; Homo sapiens, RXF 393, read-out: LC 50%) was 6.6 µM. The “GI 100%” value ([17]; RXF393, Renal Cancer) was 2.41 µM, the GI50 ([18]; Homo sapiens, SK-MEL-5) was 5 µM and the CC50 ([18]; Homo sapiens, SK-MEL-5, read-out: LC 50%) was > 10 µM. The “GI 100%” value ([18]; SK-MEL-5, Melanoma) was >10 µM, the GI50 ([19]; Homo sapiens, UACC-62) was 9.78 µM and the CC50 ([19]; Homo sapiens, UACC-62, read-out: LC 50%) was > 10 µM. For the same molecule, the “GI 100%” value ([19]; UACC-62, Melanoma) was >10 µM, the GI50 ([20]; Homo sapiens, MDA-MB-231) was 1.75 µM and the CC50 ([20]; Homo sapiens, MDA-MB-231, read-out: LC 50%) was 9.52 µM. For the same molecule, the “GI 100%” value ([20]; MDA-MB-231/ATCC, Breast Cancer) was 4.09 µM, the IC90 [21] was 2.5 µg/mL (≈ 1.99 µM) and the “Maximum Inhibition %” value [22] was 100%. The GI50 ([22]; Homo sapiens) was 2.5 µM, the GI50 ([23]; Homo sapiens) was 0.6 µM and the “Maximum Inhibition %” value [23] was 100%. The GI50 ([24]; Homo sapiens) was 1.73 µM, the CC50 ([24]; Homo sapiens, read-out: LC 50%) was 6.25 µM and the “GI 100%” value ([24]; Melanoma) was 3.29 µM.
